The Deep4Chem optical property database

Assay: solvent given as SMILES

## CCn1c2cc(-c3cccs3)ccc2c2ccc(-c3cccs3)cc21
In ClCCl
  absorption maximum: 370 nm

## O=C1c2ccccc2-c2ccccc21
In C1CCCCC1
  absorption maximum: 382 nm
In CC#N
  absorption maximum: 377 nm
In CCO
  absorption maximum: 379 nm
In c1ccccc1
  absorption maximum: 380 nm

## Fc1cc(F)c2cc3cccc[n+]3cc2c1
In O
  absorption maximum: 407 nm

## Clc1cccc(-c2nc3sc4ccccc4c3s2)c1
In CS(C)=O
  absorption maximum: 351 nm

## O=[N+]([O-])c1ccc(-c2nc3c(c4c2-c2ccccc2CC4)-c2ccccc2CC3)cc1
In C1CCOC1
  absorption maximum: 350 nm
In CC#N
  absorption maximum: 345 nm
In CCCCCC
  absorption maximum: 339 nm
In CCOC(C)=O
  absorption maximum: 339 nm
In CO
  absorption maximum: 334 nm
In CS(C)=O
  absorption maximum: 352 nm
In Cc1ccccc1
  absorption maximum: 351 nm
In ClCCl
  absorption maximum: 353 nm

## c1ccc([B-]2(c3ccccc3)Oc3ccc4ccccc4c3-c3c4ccccc4nc[n+]32)cc1
In Cc1ccccc1
  absorption maximum: 451 nm

## COc1ccccc1-c1nc(-c2ccccc2)c2ccccn12
In C1CCCCC1
  absorption maximum: 303 nm
In CC#N
  absorption maximum: 374 nm
In CO
  absorption maximum: 298 nm
In ClCCl
  absorption maximum: 374 nm
In O
  absorption maximum: 330 nm

## S=P1(c2ccccc2)c2cccc3ccc4ccc1n4c23 (stereo not drawn)
In ClCCl
  absorption maximum: 407 nm

## c1ccc(N(c2ccccc2)c2ccc(-c3ccc(-c4cc(-c5ccccn5)nc(-c5ccccn5)c4)cc3)cc2)cc1
In ClCCl
  absorption maximum: 284 nm

## Cc1ccc(N(c2ccc(C)cc2)c2ccc(-c3ccc4c(c3)C(=O)c3ccccc3C4=O)cc2)cc1
In C1CCOC1
  absorption maximum: 463 nm
In CCCCCC
  absorption maximum: 457 nm
In CCOC(C)=O
  absorption maximum: 461 nm
In CCOCC
  absorption maximum: 459 nm
In Cc1ccccc1
  absorption maximum: 470 nm
In ClC(Cl)(Cl)Cl
  absorption maximum: 474 nm
In ClCCl
  absorption maximum: 476 nm

## CN(C)c1ccc(C#Cc2nc(-c3ccccc3)nc3ccccc23)cc1
In ClCCl
  absorption maximum: 414 nm

## COc1ccc(-c2c3ccccc3c(-c3ccc(OC)cc3)c3ccccc23)cc1
In ClCCl
  absorption maximum: 376 nm

## CC1=c2cc3c(C)c4n(c3cc2=[N+]2C1=Cc1c3ccccc3c(C)n1[B-]2(F)F)[B-](F)(F)[N+]1=C(C)c2ccccc2C1=C4
In ClC(Cl)Cl
  absorption maximum: 775 nm

## COc1cc(-c2cc(-c3ccccc3)c(-c3ccccc3)c(-c3ccccc3)c2-c2ccccc2)c(OC)cc1-c1ccc(N(C)C)cc1
In ClC(Cl)Cl
  absorption maximum: 329 nm

## C(=C1c2ccccc2CCc2ccccc21)c1ccc(-c2cc(-c3ccc(C=C4c5ccccc5CCc5ccccc54)cc3)cc(-c3ccc(C=C4c5ccccc5CCc5ccccc54)cc3)c2)cc1
In C1CCOC1
  absorption maximum: 318 nm

## O=[N+]([O-])c1cc(/N=N/c2cc3c4c(c2)CCCN4CCC3)cc([N+](=O)[O-])c1
In CCOC(C)=O
  absorption maximum: 513 nm

## CC(C)[Si](C#Cc1c2nsnc2c(C#C[Si](C(C)C)(C(C)C)C(C)C)c2nc3c(nc12)Cc1ccccc1-3)(C(C)C)C(C)C
In CCCCCC
  absorption maximum: 540 nm

## COc1cc2c(cc1F)c(=O)c1cc(F)c(OC)cc1n2Cc1ccccc1
In CCO
  absorption maximum: 381 nm

## CCCCCCCCCCC(CCCCCCCCCC)Cn1c2cc(-c3ccc(C(C)(C)C)cc3)c3cccc4c5ccc6c7cc(-c8cc(C(C)(C)C)cc(C(C)(C)C)c8)n8c7c(c7cc1c(c5c76)c2c34)=C1C=CC(c2cc(C(C)(C)C)cc(C(C)(C)C)c2)=[N+]1[B-]8(F)F
In Cc1ccccc1
  absorption maximum: 780 nm

## CCCCCCCCCC1(CCCCCCCCC)c2cc(C#Cc3ccc(/C=C/c4ccc(N(CCCCCCCC)CCCCCCCC)cc4)cc3)ccc2-c2ccc(C#Cc3ccc(/C=C/c4ccc(N(CCCCCCCC)CCCCCCCC)cc4)cc3)cc21
In Cc1ccccc1
  absorption maximum: 411 nm

## CC[n+]1nc2cc3c(cc2c2cc(C)ccc21)N(C)CCC3
In O
  absorption maximum: 487 nm

## COc1cccc(C2=C3C=C(/C=C/C(=O)OC(C)(C)C)C=[N+]3[B-](F)(F)n3cccc32)c1
In ClCCl
  absorption maximum: 539 nm

## CC(C)(C)NC(=O)c1ccc2ccc3cccc4ccc1c2c34
In ClC(Cl)Cl
  absorption maximum: 377 nm

## COc1ccc2c(c1)N(c1ccccc1-c1ccccc1)c1cc3c(cc1=N2)Oc1c(cc(C(C)(C)C)cc1C(C)(C)C)N=3
In CC#N
  absorption maximum: 532 nm
In CCCCCC
  absorption maximum: 559 nm
In CO
  absorption maximum: 552 nm

## C(=C1c2ccccc2-c2ccccc21)c1ccc(-c2ccc(C=C3c4ccccc4-c4ccccc43)cc2)cc1
In C1CCOC1
  absorption maximum: 366 nm

## CCCN1/C(=C/C=C(/C=C/C2=[N+](CCC)c3ccccc3C2(C)C)c2cc[n+](C)cc2)C(C)(C)c2ccccc21
In CO
  absorption maximum: 627 nm
In CS(C)=O
  absorption maximum: 637 nm
In O
  absorption maximum: 626 nm

## c1ccc2cc3c4c(ccc3cc2c1)-c1cccc2cccc-4c12
In CCCCCCC
  absorption maximum: 407 nm

## Cc1cc(C)c(C2=C3C=CC=[N+]3[B-]3(c4ccccc4)Oc4cc(O)cc5c6ccc(C)cc6c6cc2n3c6c45)c(C)c1 (stereo not drawn)
In ClC(Cl)Cl
  absorption maximum: 643 nm

## CC1(C)c2ccccc2N(c2ccc(-c3cc(C#N)c(C#N)cc3-c3ccc(N4c5ccccc5C(C)(C)c5ccccc54)cc3)cc2)c2ccccc21
In Cc1ccccc1
  absorption maximum: 384 nm

## O=c1[nH]c2[n+](c3ccccc13)[B-](F)(F)Oc1ccccc1-2
In CC#N
  absorption maximum: 343 nm
In Cc1ccccc1
  absorption maximum: 354 nm

## O=C(O)c1ccc(-c2ccc(-c3nc(-c4ccccc4)c4ccccn34)cc2)s1
In CC#N
  absorption maximum: 362 nm

## CC1=C(I)C(C)=[N+]2C1=C(c1c(-c3ccccn3)nc3ccccn13)c1c(C)cc(C)n1[B-]2(F)F
In ClCCl
  absorption maximum: 534 nm

## CCCCCCCCC(=O)Oc1cc2[nH]c(cc2CCOC)c2nc(ccc3[nH]c(cc3CCOC)c3nc1C(CCOC)=C3)C(CCOC)=C2
In Cc1ccccc1
  absorption maximum: 647 nm
